Here are results for 13 compounds from article PMC10259201, “Mercapto-pyrimidines are reversible covalent inhibitors of the papain-like protease (PLpro) and inhibit SARS-CoV-2 (SCoV-2) replication” (RSC Advances, 2023).

For data set [1], the target named is PLpro from SCoV-2 (Severe acute respiratory syndrome coronavirus 2, UniProt P0DTD1). Kind of data set: Fluorescent PLpro inhibition assay (RLRGG-AMC substrate), dose response. Format: biochemical, SARS-CoV-2.
For the next data set, the system named is SARS-CoV-2 USA-WA1/2020. In words: SCoV-2 USA-WA1/2020 antiviral assay with plaque forming readout in Vero E6 cells. Format: cell-based.
Data set [2] concerns the target T1, PLpro (Severe acute respiratory syndrome coronavirus 2, UniProt P0DTD1). In words: Surface plasmon resonance with immobilized His-tagged PLpro. Format: binding, SARS-CoV-2. Background: In SPR one partner is held on a chip, and binding of the other changes the refractive index at the surface.
The target in data set [3] is T1, PLpro. Kind of data set: Time dependent PLpro inhibition assay (pre-incubation). It is filed as biochemical, SARS-CoV-2. The source says:
Compound 5 contains a mercaptopyrimidine fragment, which can potentially undergo addition–elimination reactions with nucleophiles. For example, Murugesan et al. recently identified a mercaptopyrimidine based inhibitor of tuberculosis cell growth, which reacted with glutathione under physiological conditions.[27,35] PLpro is a cysteine protease with a nucleophilic cysteine in its active site, which could potentially react with compound 5via an additional elimination reaction. We performed a time dependent PLpro inhibition assay with compound 5 to determine if pre-incubation time lowered its IC50. Pre-incubation time lowers the IC50 of covalent inhibitors because it gives more time for the protein to react with the inhibitor. In contrast, pre-incubation time frequently has no effect on the IC50 of non-covalent inhibitors because their koffs are generally on the timescale of second to minutes.
The PLpro protein (50 nM) was preincubated with different concentration of inhibitor (0, 1, 2.5, 5, 10 and 20 μM) for different time points (0, 5, 10, 20, 35, 95, 125, 185 minutes). The substrate (50 μM) was added and measured the fluorescence. The data was analyzed using Enzyme – inhibition, GraphPad Prism.

Another data set concerns SARS-CoV-2-NLuc. It is filed as cell-based. The note with it: data not shown.
The nature of data set [4]: Cytotoxicity assay (resazurin). Format: cell-based. The note with it: African green monkey, Vero CCL-81 cells, Vero CCL-81, resazurin, read-out: cell viability. On the technique in general: The colour change of resazurin is a common sign of viable cells or microbes.
The next data set has as its system Vero CCL-81 cells. Kind of data set: Cytotoxicity assay (resazurin). Format: cell-based. The note with it: 50 μM, Vero CCL-81, resazurin.
The next data set has as its target SCoV2 PLpro (Severe acute respiratory syndrome coronavirus 2, UniProt P0DTD1). Kind of data set: Gel-based activity based protein profiling (IA-rhodamine / NHS-rhodamine). Format: biochemical, SARS-CoV-2. The note with it: pulse chase. The method, then:
We performed activity-based profiling experiments to determine if compound 5 covalently reacted with the cysteines or lysines of PLpro.[36] Iodoacetamide-rhodamine was used as the probe for cysteine reactivity analysis and NHS-rhodamine was the probe for investigating lysine reactivity on PLpro. A traditional pulse chase experiment was performed with PLpro and the rhodamine dyes, where PLpro was first incubated with compound 5 and then incubated with iodoacetamide-rhodamine or NHS-rhodamine. After the dye incubation, PLpro was run on a protein gel and imaged via fluorescence. […] The other thiols in PLpro are either disulfides, which are unreactive to nucleophiles, or zinc chelated and have diminished nucleophilicity.
For gel-based ABPP experiments with PLpro, pure SCoV2 PLpro protein (0.1 μg per sample for IA-rhodamine and 0.05 μg for NHS-rhodamine) was pretreated with either DMSO vehicle or desired dosage of compound 5 at 37 °C for 1 hour in 25 μL PBS. […] Probe-labeled proteins were analyzed by in-gel rhodamine fluorescence using a ChemiDoc MP (Bio-Rad). Protein loading was assessed by Silver Staining.

The target in data set [5] is T1, PLpro. Kind of data set: Jump dilution assay (reversibility of PLpro inhibition). It is filed as biochemical, SARS-CoV-2. The method, then:
To investigate if compound 5 constitutes a novel class of RCI, we performed a jump dilution assay with PLpro, compound 5 and beta-mercaptoethanol (BMe). PLpro and compound 5 were mixed and allowed to react, diluted 25-fold in the presence of 5 mM BMe[38,39] and the inhibition of PLpro was measured.
BMe is not a biological nucleophile, and we re-did the jump dilution assay in the presence of either 5 mM reduced glutathione (GSH) or 200 μM cysteine (their physiological concentrations)[40] to determine if the PLpro-compound 5 adduct would rapidly decompose in cells. […] In contrast, smaller thiols such as BMe and cysteine can apparently access the PLpro active site and can displace compound 5. […] In addition, the mercaptopryimidine ring can function as a size selective filter for thiols and this unique feature should allow it to find numerous applications in drug discovery.
PLpro was mixed with compound 5 at the 10-fold higher concentration of IC50 (10 × IC50) and allowed to form protein-inhibitor complex at saturating conditions at room temperature. The complex was then rapidly diluted in a buffer supplemented with 5 mM reduced glutathione, 5 mM beta-mercaptoethanol (BMe), 200 μM cysteine to bring the compound's concentration of 1/10 × IC50. After 5 minutes of dilution, the substrate was added and incubated for 30 minutes. The fluorescent intensities were read at the excitation wavelength of 360 nm and emission wavelength of 460 nm.

The test system of another data set is SCoV PLpro. Details: method as in PMID 18852458. The note with it: cited from earlier work.
The subject of data set [6] is PLpro from SCoV-2. Details: method as in PMID 33531496, PMID 32895623, PMID 33473130, PMID 34341772, PMID 32845033. The settings on record: cited from earlier work.
Data set [7] deals with SCoV-2. Also noted: method as in PMID 33531496, PMID 32895623, PMID 33473130, PMID 34341772, PMID 32845033. The settings on record: cited from earlier work.
Data set [8] concerns SCoV-2. Also noted: method as in PMID 33531496, PMID 32895623, PMID 33473130, PMID 34341772, PMID 32845033. The note with it: oral delivery; cited from earlier work.
Where [9] appears, read: IC50 (PLpro inhibition, HTS hits), HTS hit dose response, 10 point 1:2 dilution from 40 μM, 50 nM PLpro, 50 μM RLRGG-AMC.
Setting [10] is: IC50 (PLpro inhibition, compound 5 and derivatives), hit exploration / SAR, compounds purchased from ChemDiv.

SMILES strings stand for the structures. “And” between values parts separate entries of the source, which are not always exact repeats. Equal values may be shown once. “Also recorded” adds a separate entry of the source. Read-outs that look alike come from different tables or passages of the source.

Turning to `Cc1nn(-c2ccccc2)c(OC(=O)C(C)C)c1Sc1ccccc1` [Compound 1], the 50% inhibitory concentration (IC50) on PLpro from SCoV-2 [1] (setting [9]) turned out to be 0.815 µM.

For `CNC(=O)c1sc(=S)n(-c2cc(Cl)ccc2OC)c1N` [Compound 2], at PLpro from SCoV-2 [1] (setting [9]), the concentration for half-maximal inhibition (IC50) came out at 0.985 µM.

As for `Cc1nnc(Sc2nc(Sc3nnc(C)s3)nc(Sc3nnc(C)s3)n2)s1` [Compound 4], on PLpro from SCoV-2 [1] (setting [9]), the IC50 was 1.42 µM.

Turning to `CCSc1nc2sc3c(c2c(=O)n1CC)CCc1ccccc1-3` [Compound 5B], the IC50 on PLpro from SCoV-2 [1] (hit exploration / SAR, compounds purchased from ChemDiv, read-out: IC50 (PLpro inhibition, compound 5 and derivatives)) was 5 µM and 4.99 µM. For the same compound, the “antiviral activity in Vero E6 cells by plaque assay” value in the data set with SARS-CoV-2 USA-WA1/2020 is reported as “did not have any antiviral activity; also recorded: do not exhibit antiviral activity”.

On to `C=CCSc1nc2sc3c(c2c(=O)n1CC)CCc1ccccc1-3` [Compound 5E], for which the IC50 on PLpro from SCoV-2 [1] (setting [10]) was 0.9 µM and 0.853 µM and 0.85 µM. The “IC50 relative to compound 5 (times lower / fold higher potency)” value on PLpro from SCoV-2 [1] (compared with compound 5) is listed as “approximately 5 fold”. Besides, in the data set on SARS-CoV-2 USA-WA1/2020, the “antiviral activity in Vero E6 cells by plaque assay” value is listed as “did not have any antiviral activity; also recorded: do not exhibit antiviral activity”. The Kd on PLpro [2] amounted to 8.3 µM.

For `CCCSc1nc2sc3c(c2c(=O)n1CC)CCc1ccccc1-3` [Compound 5], the IC50 was 1.59 µM on PLpro from SCoV-2 [1] (setting [9]); 5.1 µM and 5.19 µM and 5 µM on PLpro from SCoV-2 [1] (setting [10]); 0.9 µM at PLpro [3] (3 hour pre-incubation with PLpro, read-out: IC50 of PLpro inhibition after 3 hour pre-incubation); 9 µM at PLpro [3] (no pre-incubation, read-out: IC50 of PLpro inhibition, no pre-incubation). The “decrease in IC50 after pre-incubation” value on PLpro [3] (3 hours pre-incubation vs none) was determined as 10 fold. Further, the results for the “reduction of NLuc levels of infected cells” value with SARS-CoV-2-NLuc (10 μM) and in the data set on SARS-CoV-2-NLuc (20 μM) were 3 fold and 7 fold, respectively. Moreover, the “reduction in infectious virus levels (plaque forming assay)” value with SARS-CoV-2 USA-WA1/2020 (10 μM) came to 3 fold; in the data set with SARS-CoV-2 USA-WA1/2020 (20 μM), 22 fold. Further, the viability at 72 h, 1 µM in [4] (1 μM) is greater than 85%. Further, the viability at 72 h, 10 µM in data set [4] (10 μM) is greater than 85%. Besides, the viability at 72 h, 25 µM in [4] (25 μM) was greater than 85%. Moreover, in the data set with Vero CCL-81 cells, the toxicity entry was “significant toxicity”. Further, the “cysteine reactivity: blocking of iodoacetamide-rhodamine labelling of PLpro” value at SCoV2 PLpro (IA-rhodamine probe) was “prevents PLpro from reacting with iodo-acetamide; also recorded: able to prevent PLpro from reacting with iodo-acetamide”. The “lysine reactivity: blocking of NHS-rhodamine labelling of PLpro” value on SCoV2 PLpro (NHS-rhodamine probe) was “unable to prevent PLpro from reacting with NHS-rhodamine”. Further, the “recovery of PLpro activity after dilution” value is recorded as “can regenerate active PLpro; also recorded: recovered the activity of PLpro” on PLpro [5] (200 μM cysteine); “cannot; also recorded: did not” on PLpro [5] (5 mM reduced glutathione (GSH)); 90% at PLpro [5] (diluted 25-fold with 5 mM BMe, 5 minutes); “still inhibits PLpro after dilution with PBS” at PLpro [5] (dilution in PBS); “no effect on the activity of PLpro” on PLpro [5] (dilution in PBS, listed as compound 5). Moreover, the dissociation constant Kd at PLpro [2] (SPR, His-tagged PLpro on Ni-NTA chip, read-out: binding constant KD) was found to be 21 µM.

On to `CCn1c(N)c(C(=O)Nc2ccccc2OC)sc1=S` [Compound 6], for which half-maximal inhibition at PLpro from SCoV-2 [1] (setting [9]) (IC50) required 2.73 µM.

In turn, `CCOC(=O)c1sc(=S)n(-c2cc(OC)ccc2OC)c1N` [Compound 7] yielded an IC50 on PLpro from SCoV-2 [1] (setting [9]) of 3.87 µM.

Compound `CN(C)C(S)=Nc1nc2ccccc2s1` [Compound 8] had an IC50 at PLpro from SCoV-2 [1] (setting [9]) of 4.76 µM.

On PLpro from SCoV-2 [1] (setting [9]), `COC(=O)c1ccc([C@@H]2Nc3c(Cl)cccc3[C@@H]3C=CC[C@@H]32)cc1` [Compound 9] came in with a concentration for half-maximal inhibition (IC50) of 7.94 µM.

`Cc1ccc(-n2c(N)c(C(=O)N3CCCCC3)sc2=S)cc1` [Compound 10] gave a 50% inhibitory concentration (IC50) at PLpro from SCoV-2 [1] (setting [9]) of 8.33 µM.

Turning to `Cc1ccc(N)cc1C(=O)N[C@H](C)c1cccc2ccccc12` [GRL0617], the “IC50 (SCoV PLpro)” value with SCoV PLpro was “low micromolar range”. Moreover, the “IC50 (PLpro from SCoV-2)” value in the data set on PLpro from SCoV-2 [6] is reported as “micromolar range”. For the same compound, the “IC50 (viral replication in cells)” value with SCoV-2 [7] is on record as “micromolar range”. Besides, the “antiviral activity against SCoV-2 in mice” value in the data set on SCoV-2 [8] is on record as “moderate antiviral activity”.

Take `CCC(CC)COC(=O)[C@H](C)N[P@](=O)(OC[C@H]1O[C@@](C#N)(c2ccc3c(N)ncnn23)[C@H](O)[C@@H]1O)Oc1ccccc1` [Remdesivir, reference compound]: the “antiviral activity, positive control in plaque forming assay” value with SARS-CoV-2 USA-WA1/2020 (100 μM) is given as “potently inhibited the virus”.

One may read the IC50 as the midpoint of a concentration-inhibition curve. In general, Kd refers to the concentration at which binding is half-saturated. A word on the viability: it is a per cent measure of how many cells are alive, often set against a control.
